Consider 42 substances from patent US11214803B2, “Modulators of YAP1 expression” (Ionis Pharmaceuticals, Inc., priority 2019, dated 2022).

Strand notation (5' to 3'): a small letter for the sugar, then the base; units joined by * are phosphorothioate-linked, units joined directly phosphodiester-linked; [ ] holds rarer units or linkages, { } end groups; capitals alone tell only the bases. k = constrained ethyl (cEt); [5mC] = 5-methylcytosine; d = 2'-deoxy (DNA)

The subject of this data set is Yap1 mRNA. Nature of the data set: Antisense inhibition of human Yap1 in A-431 cells by cEt gapmers, single dose (Example 2, RTS4814). Type of data set: cell-based. In a few lines:
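A-431 cells (5,000/well) took up 2,000 nM 3-10-3 cEt gapmer by free uptake for ~48 h. Yap1 mRNA was quantified by qRT-PCR with primer probe set RTS4814, normalized to RIBOGREEN total RNA, and reported as % of untreated control.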

Where [1] appears, read: Table 24, Yap1 mRNA as percent of untreated control, 3-10-3 cEt gapmers targeting SEQ ID NO.: 1, and 2.
The mark [2] stands for this setting: Yap1 mRNA as percent of untreated control, A-431 cells, 3-10-3 cEt gapmers targeting SEQ ID NO.: 1, and 2, Table 30.
The mark [3] stands for this setting: Table 6, A-431 cells, 5,000 cells per well, free uptake, 2,000 nM modified oligonucleotide, approx. 48 hours, RTS4814, normalized to RIBOGREEN, Yap1 mRNA relative to untreated control cells.
The mark [4] stands for this setting: A-431 cells, 5,000 cells per well, free uptake, 2,000 nM modified oligonucleotide, approx. 48 hours, RTS4814, normalized to RIBOGREEN, Table 4, asterisk (*) = targets amplicon region of primer probe set.
Setting [5] is: Table 20, Yap1 mRNA, percent of untreated control, 3-10-3 cEt gapmers targeting SEQ ID NO.: 1 and 2.
Setting [6] is: Yap1 mRNA as percent of untreated control, A-431 cells, 3-10-3 cEt gapmers targeting SEQ ID NO.: 1, and 2, Table 31.
[7] abbreviates: Table 25, Yap1 mRNA as percent of untreated control, 3-10-3 cEt gapmers targeting SEQ ID NO.: 1, and 2.
The mark [8] stands for this setting: Table 18, A-431 cells, 5,000 cells per well, free uptake, 2,000 nM modified oligonucleotide, approx. 48 hours, RTS4814, normalized to RIBOGREEN, Yap1 mRNA as percent of untreated control.
Where [9] appears, read: Table 33, Yap1 mRNA, percent of untreated control, 3-10-3 cEt gapmers targeting SEQ ID NO.: 1, and 2.
Setting [10] is: Table 32, Yap1 mRNA, percent of untreated control, 3-10-3 cEt gapmers targeting SEQ ID NO.: 1, and 2.
Setting [11] is: Table 5, A-431 cells, 5,000 cells per well, free uptake, 2,000 nM modified oligonucleotide, approx. 48 hours, RTS4814, normalized to RIBOGREEN, Yap1 mRNA relative to untreated control cells.
The mark [12] stands for this setting: Table 23, Yap1 mRNA as percent of untreated control, 3-10-3 cEt gapmers, single dose.

For “1075882 (kG*kA*kA*dA*dA*dT*d[5mC]*d[5mC]*dT*dG*dA*dT*dT*kA*kA*k[5mC]; antisense) [Compound 1075882]”, the “YAP1 (% UTC)” value under setting [1] was 73 % UTC.

Consider “1076144 (kT*kT*kT*dT*dA*dT*dA*dG*dG*dG*d[5mC]*dA*dA*kT*kG*kG; antisense) [compound 1076144]”, for which the “YAP1 (% UTC)” value under setting [2] was found to be 7 % UTC.

Consider “716372 (kA*kT*kG*dA*dG*d[5mC]*dT*d[5mC]*dG*dA*dA*d[5mC]*dA*kT*kG*k[5mC]; antisense) [Compound 716372]”, for which the “YAP1 (% UTC)” value under setting [3] amounted to 61 % UTC. For the substance “716471 (k[5mC]*k[5mC]*kT*dA*d[5mC]*dT*d[5mC]*dA*d[5mC]*dT*dG*dA*dA*kT*kT*k[5mC]; antisense) [Compound 716471]”, the “YAP1 (% UTC)” value under setting [3] turned out to be 48 % UTC. For “716427 (kA*kG*k[5mC]*d[5mC]*d[5mC]*d[5mC]*d[5mC]*dA*dA*dA*dA*dT*dG*kA*kA*k[5mC]; antisense) [Compound 716427]”, the “YAP1 (% UTC)” value under setting [4] was determined as 86 % UTC. On to “716381 (kT*kG*kT*d[5mC]*dT*dG*dA*dT*d[5mC]*dG*dA*dT*dG*kT*kG*kA; antisense) [Compound 716381]”, for which, under setting [3], the “YAP1 (% UTC)” value came to 35 % UTC. In the case of “1076454 (kT*kA*kA*dA*d[5mC]*dT*dA*dA*dT*d[5mC]*d[5mC]*d[5mC]*dA*kT*kA*kT; antisense) [Compound 1076454]”, under setting [5], the “YAP1 (% UTC)” value was determined as 35 % UTC.

Consider “1076529 (k[5mC]*kT*kA*dT*dA*dA*dT*dG*dA*dG*dG*dA*dT*kT*kA*k[5mC]; antisense) [compound 1076529]”, for which, under setting [6], the “YAP1 (% UTC)” value stood at 108 % UTC. On to “1075975 (kG*kG*kA*dA*dA*dA*dA*dA*dA*dT*dT*d[5mC]*d[5mC]*kG*k[5mC]*kA; antisense) [Compound 1075975]”, for which, under “Table 21, Yap1 mRNA, percent of untreated control, 3-10-3 cEt gapmers targeting SEQ ID NO.: 1 and 2”, the “YAP1 (% UTC)” value was 84 % UTC. On to “1074411 (antisense kT*kG*kT*dG*dA*dA*dA*dG*dA*dG*dG*dT*d[5mC]*kA*kG*k[5mC]) [Compound 1074411]”, for which the “YAP1 (% UTC)” value under setting [7] is 3 % UTC. In the case of “1075844 (kT*kA*kT*dT*dA*dA*dA*dT*dA*dA*dG*dA*dG*k[5mC]*kT*k[5mC]; antisense) [Compound 1075844]”, the “YAP1 (% UTC)” value under setting [8] was 84 % UTC.

With “1076043 (k[5mC]*kA*kA*dA*dA*dA*dG*dG*d[5mC]*dT*dA*dT*dT*kG*kA*kG; antisense) [Compound 1076043]”, under setting [7], the “YAP1 (% UTC)” value turned out to be 36 % UTC. Regarding “1074387 (k[5mC]*k[5mC]*kA*dG*dG*dA*dA*dT*dG*dG*d[5mC]*dT*dT*k[5mC]*kA*kA; antisense) [compound 1074387]”, the “YAP1 (% UTC)” value under setting [9] was determined as 32 % UTC. Consider “1074258 (antisense kA*kT*kA*dT*dT*d[5mC]*dT*dG*d[5mC]*dT*dG*d[5mC]*dA*k[5mC]*kT*kG) [compound 1074258]”, for which, under setting [10], the “YAP1 (% UTC)” value came out at 36 % UTC. Still for that read-out and setting: as for “1075538 (kG*kA*kA*dT*dT*dG*dG*dA*dA*d[5mC]*dA*d[5mC]*d[5mC]*kT*k[5mC]*kA; antisense) [compound 1075538]”, the figure is 66 % UTC. With “1076499 (kG*k[5mC]*kT*dA*dA*dT*dA*dT*dA*dT*d[5mC]*d[5mC]*dA*kA*kT*kT; antisense) [compound 1076499]”, under setting [9], the “YAP1 (% UTC)” value is reported as 37 % UTC. As to “1076243 (kA*kT*kA*dT*dT*d[5mC]*dG*dA*dT*dG*dT*dA*dA*k[5mC]*kT*kT; antisense) [compound 1076243]”, under setting [9], the “YAP1 (% UTC)” value was determined as 41 % UTC. In the case of “716517 (antisense kT*kT*k[5mC]*dA*d[5mC]*dA*dA*d[5mC]*d[5mC]*d[5mC]*d[5mC]*d[5mC]*d[5mC]*k[5mC]*k[5mC]*k[5mC]) [Compound 716517]”, the “YAP1 (% UTC)” value under setting [4] is 53 % UTC. Turning to “1074826 (kA*kA*kA*dT*d[5mC]*d[5mC]*dA*d[5mC]*d[5mC]*dT*dG*dA*dG*k[5mC]*kA*k[5mC]; antisense) [Compound 1074826]”, the “YAP1 (% UTC)” value under setting [1] was 51 % UTC. “1074475 (kA*k[5mC]*k[5mC]*dA*dA*d[5mC]*d[5mC]*d[5mC]*d[5mC]*d[5mC]*d[5mC]*d[5mC]*dA*k[5mC]*k[5mC]*kG; antisense) [Compound 1074475]”: the “YAP1 (% UTC)” value under setting [7] is 72 % UTC. On to “716473 (k[5mC]*kT*kA*dT*dA*dA*dA*dG*d[5mC]*dT*dT*dA*dT*kT*kT*k[5mC]; antisense) [Compound 716473]”, for which, under setting [11], the “YAP1 (% UTC)” value is given as 104 % UTC. In the case of “716481 (kT*k[5mC]*kA*dG*d[5mC]*dA*dT*dA*dG*dA*dA*dG*dT*kA*kG*kG; antisense) [Compound 716481]”, the “YAP1 (% UTC)” value under setting [4] is recorded as 23 % UTC. Regarding “716477 (kG*kT*kG*dT*dT*d[5mC]*dA*dT*dT*dA*d[5mC]*dA*dA*kA*kT*kG; antisense) [Compound 716477]”, the “YAP1 (% UTC)” value under setting [3] amounted to 42 % UTC. “1075888 (antisense kA*k[5mC]*kT*dT*dA*dA*dA*d[5mC]*dT*dT*dG*dA*dG*kG*kG*kA) [compound 1075888]”: the “YAP1 (% UTC)” value under setting [2] is on record as 22 % UTC.

Turning to “716475 (k[5mC]*kT*kT*d[5mC]*d[5mC]*dA*dA*dA*dA*d[5mC]*dT*dA*dA*kG*kG*k[5mC]; antisense) [Compound 716475]”, under setting [4], the “YAP1 (% UTC)” value is listed as 63 % UTC. For “1074192 (antisense kG*kA*k[5mC]*dG*dG*d[5mC]*dG*dG*dG*d[5mC]*d[5mC]*d[5mC]*dT*kG*k[5mC]*k[5mC]) [compound 1074192]”, under setting [2], the “YAP1 (% UTC)” value came to 108 % UTC. On to “1076133 (k[5mC]*kA*kT*dA*d[5mC]*dT*dA*dA*dT*dT*dT*dG*dG*kT*kA*kA; antisense) [Compound 1076133]”, for which the “YAP1 (% UTC)” value (Table 19, A-431 cells, 5,000 cells per well, free uptake, 2,000 nM modified oligonucleotide, approx. 48 hours, RTS4814, normalized to RIBOGREEN, Yap1 mRNA as percent of untreated control) was found to be 60 % UTC. For the substance “1075686 (kG*kT*kA*dA*dT*dT*dA*d[5mC]*dA*dG*dT*dG*dT*k[5mC]*kT*k[5mC]; antisense) [Compound 1075686]”, the “YAP1 (% UTC)” value under setting [5] is given as 10 % UTC. For “1075556 (kT*kG*kG*d[5mC]*dA*dA*dA*dA*dG*dA*dG*dT*dG*kG*kT*kG; antisense) [Compound 1075556]”, the “YAP1 (% UTC)” value under setting [8] was determined as 68 % UTC. With “1075430 (antisense k[5mC]*kT*kT*dA*dA*d[5mC]*dT*dA*dA*d[5mC]*dT*dT*dG*kA*k[5mC]*k[5mC]) [Compound 1075430]”, under setting [5], the “YAP1 (% UTC)” value was 96 % UTC. Consider “716548 (kG*kA*kG*dT*dT*dT*d[5mC]*dA*dA*d[5mC]*dA*d[5mC]*dT*kG*kA*kT; antisense) [Compound 716548]”, for which the “YAP1 (% UTC)” value under setting [11] came to 31 % UTC.

Take “716522 (antisense kG*kT*kG*dA*d[5mC]*dT*dG*dA*dA*dA*d[5mC]*dT*d[5mC]*kT*kA*kG) [Compound 716522]”: the “YAP1 (% UTC)” value under setting [3] was 47 % UTC. As for “1074598 (antisense k[5mC]*kT*kT*dA*dT*dA*dG*dT*dA*dT*dT*d[5mC]*dT*kA*kT*k[5mC]) [Compound 1074598]”, the “YAP1 (% UTC)” value under setting [5] is reported as 46 % UTC. With “1074953 (antisense kG*kG*kG*dT*dT*dT*dT*dT*dG*dT*d[5mC]*dA*dT*k[5mC]*kA*kG) [Compound 1074953]”, the “YAP1 (% UTC)” value under setting [12] came out at 32 % UTC.

In the case of “1074288 (antisense kG*kA*k[5mC]*dT*dG*dA*dT*dT*d[5mC]*dT*d[5mC]*dT*dG*kG*kT*kT) [compound 1074288]”, under setting [2], the “YAP1 (% UTC)” value came to 48 % UTC. “1075883 (kA*k[5mC]*kT*dA*dA*dA*dA*d[5mC]*d[5mC]*dA*dT*dT*dT*kG*k[5mC]*k[5mC]; antisense) [Compound 1075883]”: under setting [7], the “YAP1 (% UTC)” value is recorded as 20 % UTC. For “1076521 (antisense kA*k[5mC]*kT*dA*dA*dA*dG*dG*dA*dG*dT*d[5mC]*dA*kT*kG*kA) [Compound 1076521]”, the “YAP1 (% UTC)” value under setting [12] came out at 67 % UTC.

Consider “1075920 (antisense kA*kA*kA*dG*dA*dA*dA*dG*d[5mC]*dT*dG*d[5mC]*dG*k[5mC]*kA*k[5mC]) [compound 1075920]”, for which the “YAP1 (% UTC)” value under setting [2] worked out at 108 % UTC.

“1076008 (kA*kG*k[5mC]*dG*dA*dA*dA*dA*dT*dA*dA*d[5mC]*dA*kT*kT*kA; antisense) [Compound 1076008]”: the “YAP1 (% UTC)” value (Table 22, Yap1 mRNA as percent of untreated control, 3-10-3 cEt gapmers, single dose) is 33 % UTC. On to “1075057 (antisense k[5mC]*k[5mC]*kT*dT*dA*dG*dG*dA*dG*dT*dA*dG*dA*k[5mC]*kT*kG) [compound 1075057]”, for which the “YAP1 (% UTC)” value under setting [6] came to 14 % UTC. Take “716425 (kG*k[5mC]*kA*dA*dT*dA*d[5mC]*dA*dT*dT*dA*dA*d[5mC]*kA*kG*k[5mC]; antisense) [Compound 716425]”: under setting [11], the “YAP1 (% UTC)” value was 71 % UTC. For “716355 (kG*kA*k[5mC]*dG*dG*d[5mC]*dT*dG*d[5mC]*dG*dG*dG*d[5mC]*k[5mC]*kG*kG; antisense) [Compound 716355]”, the “YAP1 (% UTC)” value under setting [4] stood at 96 % UTC.
